Results reported in patent US20090252814A1, “USE OF XENON FOR ORGAN PROTECTION” (priority 2005, published 2009).

Assays:
HIF-1α = HIF-1α expression in the kidney after exposure to xenon (western blot); format: in vivo, C57BL/6J mice; conditions: adult mice, 75% xenon 2 h by inhalation, kidneys harvested 0-24 h after
Protocol: Studies were performed on adult 8- to 12-wk-old C57BL/6J mice (Jackson Labs, Bar Harbor, Me.) that were fed a standard laboratory diet. All procedures were approved by the Home Office.
The mice were exposed to 75% xenon for two hours. The xenon gas was administered to the mice by inhalation. The kidneys of said mice were then harvested as described below between 0-24 hours after exposure to the xenon gas.
Once sacrificed, the kidneys were harvested and frozen at −80° C. […] Protein concentration in the supernatant was determined by DC (detergent-compatible) protein assay (Bio-Rad, Herts, UK), based on the Lowry method. […]
After washing in TBS-T the membrane was incubated with the appropriate goat-derived horseradish peroxidase-conjugated secondary antibody at room temperature for 1½ hours to detect the primary antibodies. The immunoreactive bands were visualised with the enhanced chemiluminescence system and detected on X-ray film. The results were quantified by densitometry as an x-fold increase relative to the control without xenon—the amount of protein applied was normalised by the densitometry of the tubulin (which was unaltered by the intervention itself). […]

kidney = experiment: Ischaemic-reperfusion renal injury with xenon preconditioning; format: in vivo, C57BL/6J mice
Protocol: (§1) Studies were performed on 8- to 12-wk-old C57BL/6J mice (Jackson Labs, Bar Harbor, Me.) that were fed a standard laboratory diet. All procedures were approved by the Home Office.
The groups of mice were treated as follows: • Naïve=no anaesthesia and no surgery of any kind was carried out on these mice; • Sham=anaesthesia and surgery was carried out on these mice but there was no clamping of the renal pedicle; • Control (or P20)=anaesthesia and surgery together with clamping of the renal pedicle was carried out on these mice but there was but no xenon preconditioning; • XPD group (or XePC24)=mice were exposed to 75% xenon for two hours (XPD=preconditioned with xenon). The xenon gas was administered to the mice by inhalation. Twenty-four hours after this preconditioning the mice then underwent anaesthesia and surgery together with clamping of the renal pedicle; and • Xe=mice were exposed to 75% xenon for two hours but no surgery together with clamping of the renal pedicle was carried out.
Renal injury, as described below, was carried out 24 hours after the mice were exposed to xenon. […]
Kidneys were removed from mice immediately after they were killed, cut in half, fixed in neutral-buffered formalin, and embedded in paraffin. Sections (5 μm thick) of formalin-fixed, paraffin-embedded tissue were mounted on glass slides and stained with haematoxylin-eosin for general histology and quantitative analysis. All tissues were evaluated without investigator knowledge of the group from which it originated.
For quantification of morphologic data, more than 10 low-magnification fields (×200) including both cortex and outer medulla were randomly selected. […] The total score for each kidney was calculated by addition of all 10 scores (maximum score 30). The histology score was assessed in a blinded manner in each group. […] mice were assessed for the control and XPD groups and four mice were assessed for each of the naïve and sham groups.
Mean±SEM are presented. The significant difference in mean values was evaluated by either a t test or by Dunnett paired t test for multiple comparisons. […]

erythropoietin (EPO) = experiment: EPO protein expression in neonatal rat brain (western blot); format: in vivo, Sprague Dawley rats; conditions: neonatal rat brains, 75% xenon 2 h, harvested 0-24 h after
Protocol: Sprague Dawley, 7 day neonatal rats were used. All procedures were approved by the Home Office.
The neonatal rats were exposed to 75% xenon for two hours. The gas was administered by gas inhalation. The brains of said rats were then harvested as described below between 0-24 hours after exposure to the xenon gas.
The tissues were homogenised and western blots of neonatal rat brain samples were carried out as described in Example 1.
The primary antibodies were anti-α-tubulin antibody, and monoclonal mouse anti-erythropoietin antibody.

HIF-1α gene = experiment: HIF-1α RNA expression in adult mice brains (RT-PCR); format: in vivo, C57BL/6J mice; conditions: 75% xenon and 25% oxygen 2 h, harvested 0-72 h after
Protocol: as §1
The mice were exposed to 75% xenon and 25% oxygen for two hours. The xenon gas was administered to the mice by inhalation. The brains of said adult mice were then harvested as described below between 0-72 hours after exposure to the xenon gas.
Total RNA was extracted as described in Example 4. In addition RT-PCR was carried out as described in Example 4. The primers used for the PCR amplifications were: […]

rabbit heart = conditions: xenon during early reperfusion, rabbit heart (Preckel et al 2000); cited from earlier work
[1] = in combination with oxygen; cited from earlier work
[2] = XePC24 group compared to P20 group (no preconditioning)

## [Xe] [xenon]
HIF-1α
  HIF-1α expression in the kidneys: time-dependent increase
kidney; 75% xenon 2 h, 24 h before 20 min ischaemia and 24 h reperfusion, histology score
  morphologic injury in the kidney: decreased
kidney; [2]
  amount of creatinine in blood plasma: significantly decreases
  amount of urea nitrogen in blood plasma: significantly decreases
Erythropoietin (EPO)
  expression of EPO protein: time-dependent increase
HIF-1α gene
  transcription of the HIF-1α gene: does not modulate
Rabbit heart
  infarct size after regional ischaemia: reduces infarct size
[1]
  concentrations exhibiting anaesthetic effects: 10-70 vol. %
